The target in experiment [1] is human RORγt ligand binding domain (RORγt LBD) (Homo sapiens (Human), UniProt P51449). Briefly: RORγt ThermoFluor® assay (thermal shift binding). To be noted: read-out: ThermoFluor® Assay, Kd. Summed up:
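His-tagged human RORγt LBD (0.065 mg/mL) with 60 μM 1,8-ANS in 100 mM Hepes pH 7.0, 10 mM NaCl, 2.5 mM GSH, 0.002% Tween-20 was heated at 1 °C/min.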

Experiment [2] concerns the target full-length human RORγt (Homo sapiens (Human), UniProt P51449). As to the kind of experiment: RORγt (full-length human) reporter assay, Conditions B or C. It is filed as cell-based. As to conditions: for IC50: read-out: RORγt (FL) Reporter Assay B or C, IC50; for RORγt (FL) Reporter Assay B or C, % inhibition (value marked *): marked *: footnote not given; for inhibition at 3 µM: at 3 μM compound concentration, read-out: RORγt (FL) Reporter Assay B or C, % inhibition. Summed up: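 HEK293T cells transiently co-transfected with GAL4-DBD–full-length human RORγt (nt 142-1635, NM_001001523.1) plus GAL4-firefly and CMV-Renilla luciferase reporters; compounds added 4-6 h post-transfection for 16-20 h in 1.3% FBS, 0.1% DMSO. Firefly signal normalized to DMSO and saturating reference compound, then to Renilla; IC50 from concentration plots.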
(In general: Reporter assays use an easily measured gene product as a stand-in for the process of interest.)

The structures appear in SMILES notation. Read-outs that look alike come from different tables or passages of the source.

human RORγt ligand binding domain (RORγt LBD), sequence (P51449 other isoform, or with tags, fused parts or gaps): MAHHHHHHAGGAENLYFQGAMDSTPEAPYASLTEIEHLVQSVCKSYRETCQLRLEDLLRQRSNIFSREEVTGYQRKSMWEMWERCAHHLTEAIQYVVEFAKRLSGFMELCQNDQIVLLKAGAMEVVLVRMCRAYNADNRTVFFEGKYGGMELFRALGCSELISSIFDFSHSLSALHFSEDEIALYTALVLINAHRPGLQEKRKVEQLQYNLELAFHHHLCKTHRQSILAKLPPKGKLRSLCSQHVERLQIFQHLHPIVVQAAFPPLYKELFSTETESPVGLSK
full-length human RORγt, sequence (P51449 other isoform, or with tags, fused parts or gaps): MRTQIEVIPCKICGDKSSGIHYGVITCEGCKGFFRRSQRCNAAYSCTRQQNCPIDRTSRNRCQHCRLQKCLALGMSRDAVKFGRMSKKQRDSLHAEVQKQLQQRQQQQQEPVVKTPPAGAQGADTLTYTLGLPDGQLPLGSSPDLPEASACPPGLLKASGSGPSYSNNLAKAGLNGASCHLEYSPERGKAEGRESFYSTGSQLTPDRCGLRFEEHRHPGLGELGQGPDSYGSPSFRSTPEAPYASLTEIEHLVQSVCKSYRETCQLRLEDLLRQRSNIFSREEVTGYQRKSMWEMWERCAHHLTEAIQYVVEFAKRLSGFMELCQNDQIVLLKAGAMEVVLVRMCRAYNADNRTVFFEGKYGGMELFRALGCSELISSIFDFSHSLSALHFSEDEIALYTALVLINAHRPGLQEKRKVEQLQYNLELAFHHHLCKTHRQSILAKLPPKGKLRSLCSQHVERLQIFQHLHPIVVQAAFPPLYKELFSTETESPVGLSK

Broadly, the Kd is the concentration at which binding is half-saturated. In general, IC50 refers to the concentration that inhibits the measured activity by half. On to `CC[C@H](Nc1cc(C(F)F)c(-c2sc(C(=O)N[C@@H]3COC[C@H]3O)nc2C(=O)N2CCC[C@@H]2C)cn1)C(F)(F)F` [Example 220, 5-(4-(Difluoromethyl)-6-(((1S)-1-(trifluoromethyl)propyl)amino)-3-pyridyl)-N-((3R,4S)-4-hydroxytetrahydrofuran-3-yl)-4-((2S)-2-methylpyrrolidine-1-carbonyl)thiazole-2-carboxamide], for which the Kd in experiment [1] stood at 6.1 nM. Besides, the “RORγt (FL) Reporter Assay B or C, % inhibition (value marked *****)” value in experiment [2] (Conditions B or C, marked *****: footnote not shown) is on record as 111***** %. The IC50 in experiment [2] (Conditions B or C) came out at 13 nM.
Take `CC[C@H](Nc1cc(C(F)F)c(-c2sc(C(=O)N[C@H]3C[C@H](O)C3)nc2C(=O)N2CCC[C@@H]2C)cn1)C(F)(F)F` [Example 233, 5-[4-(Difluoromethyl)-6-[[(1S)-1-(trifluoromethyl)propyl]amino]-3-pyridyl]-N-((1r,3S)-3-hydroxycyclobutyl)-4-[(2S)-2-methylpyrrolidine-1-carbonyl]thiazole-2-carboxamide]: in experiment [1], the Kd amounted to 10 nM. For the same compound, in experiment [2] (Conditions B or C), the “RORγt (FL) Reporter Assay B or C, % inhibition (value marked *)” value (“RORγt … % inhibition (value marked *)” below) is 124* % and the IC50 was found to be 22 nM.
With `CC[C@H](Nc1cc(C(F)F)c(-c2sc(C(=O)N[C@H](C)C(C)(C)O)nc2C(=O)N2C3CCC2CC3)cn1)C(F)(F)F` [Example 242, 4-((1s,4s)-7-Azabicyclo[2.2.1]heptane-7-carbonyl)-5-[4-(difluoromethyl)-6-[[(1S)-1-(trifluoromethyl)propyl]amino]-3-pyridyl]-N-[(1R)-2-hydroxy-1,2-dimethyl-propyl]thiazole-2-carboxamide], the Kd in experiment [1] worked out at 2.8 nM. In addition, in experiment [2] (Conditions B or C), the “RORγt … % inhibition (value marked *)” value is recorded as 86* % and the IC50 amounted to 15 nM.
In the same order, the values of `CC[C@H](Nc1cc(C(F)F)c(-c2sc(C(=O)NC3CCS(=O)(=O)CC3)nc2C(=O)N2C3CCC2CC3)cn1)C(F)(F)F` [Example 154] are 1 nM, 99* % and 98 nM.
For orientation: inhibition means the change of the read-out against control, counted positive when it falls. Turning to `CC[C@H](Nc1cc(C(F)F)c(-c2sc(C(=O)N[C@H]3C[C@H](O)C3)nc2C(=O)N2CC(F)(F)C[C@@H]2C)cn1)C(F)(F)F` [Example 449, 4-((S)-4,4-Difluoro-2-methylpyrrolidine-1-carbonyl)-5-(4-(difluoromethyl)-6-(((S)-1,1,1-trifluorobutan-2-yl)amino)pyridin-3-yl)-N-((1R,3S)-3-hydroxycyclobutyl)thiazole-2-carboxamide], the Kd in experiment [1] is 2.1 nM. For the same compound, in experiment [2], the inhibition at 3 µM was 108% and the IC50 amounted to 21 nM.
With `C[C@H]1CCCN1C(=O)c1nc(C(=O)NCC(C)(C)O)sc1-c1cnc(N[C@H](C)C(C)(C)C)cc1C(F)F` [Example 298, 5-(4-(Difluoromethyl)-6-(((R)-3,3-dimethylbutan-2-yl)amino)pyridin-3-yl)-N-(2-hydroxy-2-methylpropyl)-4-((S)-2-methylpyrrolidine-1-carbonyl)thiazole-2-carboxamide], the Kd in experiment [1] came to 3.4 nM. Further, in experiment [2], the inhibition at 3 µM was found to be 99% and the IC50 came out at 7.7 nM.
`CC[C@H](Nc1cc(C(F)F)c(-c2sc(C(=O)NCC(C)(C)O)nc2C(=O)N2C3CCC2CC3)cn1)C1CC1` (stereo in doubt) [Example 163, 4-((1s,4s)-7-Azabicyclo[2.2.1]heptane-7-carbonyl)-5-(6-(((S*)-1-cyclopropyl)amino)-4-(difluoromethyl)pyridine-3-yl)-N-(2-hydroxy-2-methylpropyl)thiazole-2-carboxamide]: the dissociation constant Kd in experiment [1] was 14 nM. For the same compound, in experiment [2] (Conditions B or C), the “RORγt … % inhibition (value marked *)” value is 114* % and the IC50 amounted to 12 nM.
As for `CC[C@H](Nc1cc(C(F)F)c(-c2sc(C(=O)N[C@@H](C)C(C)(C)O)nc2C(=O)N2CC(F)(F)C[C@@H]2C)cn1)C(F)(F)F` [Example 246, 4-[(2S)-4,4-Difluoro-2-methyl-pyrrolidine-1-carbonyl]-5-[4-(difluoromethyl)-6-[[(1S)-1-(trifluoromethyl)propyl]amino]-3-pyridyl]-N-[(1S)-2-hydroxy-1,2-dimethyl-propyl]thiazole-2-carboxamide], the Kd in experiment [1] came out at 1.3 nM. The “RORγt (FL) Reporter Assay B or C, % inhibition (value marked ***)” value in experiment [2] (Conditions B or C, marked ***: footnote not given) is on record as 112*** %. In addition, in experiment [2] (Conditions B or C), the IC50 stood at 11 nM.
Take `C[C@H](CO)NC(=O)c1nc(C(=O)N2CCC[C@@H]2C)c(-c2cnc(NC(C)(C)C)cc2C(F)(F)F)s1` [Example 346, 5-[6-(tert-Butylamino)-4-(trifluoromethyl)-3-pyridyl]-N-[(1R)-2-hydroxy-1-methyl-ethyl]-4-[(2S)-2-methylpyrrolidine-1-carbonyl]thiazole-2-carboxamide]: in experiment [1], the Kd turned out to be 1.4 nM. Also, in experiment [2], the inhibition at 3 µM came out at 112% and the half-maximal inhibitory concentration (IC50) worked out at 13 nM.
The corresponding values for `C[C@H]1CCCN1C(=O)c1nc(C(=O)NC2(CO)COC2)sc1-c1cnc(NC(C)(C)C)cc1C(F)(F)F` [Example 261, 5-[6-(tert-Butylamino)-4-(trifluoromethyl)-3-pyridyl]-N-[3-(hydroxymethyl)oxetan-3-yl]-4-[(2S)-2-methylpyrrolidine-1-carbonyl]thiazole-2-carboxamide] are 2.6 nM, 104% and 23 nM.
On to `C[C@H]1CCCN1C(=O)c1nc(C(=O)NC2CS(=O)(=O)C2)sc1-c1cnc(NC2CCCC2)cc1C(F)F` [Example 61, (S)-5-(6-(Cyclopentylamino)-4-(difluoromethyl)pyridin-3-yl)-N-(1,1-dioxidothietan-3-yl)-4-(2-methylpyrrolidine-1-carbonyl)thiazole-2-carboxamide], for which the Kd in experiment [1] was 7 nM. In experiment [2] (Conditions B or C), the “RORγt … % inhibition (value marked *)” value is 103* % and the IC50 was 13 nM.
In the same order, the values of `C[C@H]1CC(F)(F)CN1C(=O)c1nc(C(=O)N[C@@H]2COC[C@@H]2O)sc1-c1cnc(NC2(C)CCC2)cc1C(F)(F)F` (relative stereo) [Example 183, 4-((S)-4,4-Difluoro-2-methylpyrrolidine-1-carbonyl)-N-((3R*,4R*)-4-hydroxytetrahydrofuran-3-yl)-5-(6-((1-methylcyclobutyl)amino)-4-(trifluoromethyl)pyridine-3-yl)thiazole-2-carboxamide] are 0.22 nM, 76* % and 34 nM.
In the same order, the values of `C[C@H]1CC(F)(F)CN1C(=O)c1nc(C(=O)N[C@H]2COC[C@H]2O)sc1-c1cnc(NC2(C)CCC2)cc1C(F)(F)F` (relative stereo) [Example 184, 4-((S)-4,4-Difluoro-2-methylpyrrolidine-1-carbonyl)-N-((3S*,4S*)-4-hydroxytetrahydrofuran-3-yl)-5-(6-((1-methylcyclobutyl)amino)-4-(trifluoromethyl)pyridine-3-yl)thiazole-2-carboxamide] are 0.7 nM, 92* % and 49 nM.
For `C[C@H](Nc1cc(C(F)(F)F)c(-c2sc(C(=O)NCC(C)(C)O)nc2C(=O)N2CC(F)(F)C[C@@H]2C)cn1)C(F)(F)F` [Example 110, 4-((S)-4,4-Difluoro-2-methylpyrrolidine-1-carbonyl)-N-(2-hydroxy-2-methylpropyl)-5-(4-(trifluoromethyl)-6-(((S)-1,1,1-trifluoropropan-2-yl)amino)pyridin-3-yl)thiazole-2-carboxamide], in experiment [1], the Kd is 2.2 nM. In experiment [2] (Conditions B or C), the “RORγt … % inhibition (value marked *)” value is recorded as 112* % and the IC50 stood at 26 nM.
In the same order, the values of `C[C@H](Nc1cc(C(F)(F)F)c(-c2sc(C(=O)N[C@@H]3CCC[C@@H]3O)nc2C(=O)N2CC(F)(F)C[C@@H]2C)cn1)C1CC1` [Example 201, 5-(6-(((S)-1-Cyclopropylethyl)amino)-4-(trifluoromethyl)pyridine-3-yl)-4-((S)-4,4-difluoro-2-methylpyrrolidine-1-carbonyl)-N-((1R,2S)-2-hydroxycyclopentyl)thiazole-2-carboxamide] are 0.61 nM, 102* % and 16 nM.
The corresponding values for `C[C@H]1CC(F)(F)CN1C(=O)c1nc(C(=O)NC2COCC2O)sc1-c1cnc(NC2(C)CCC2)cc1C(F)(F)F` (stereo partly drawn) [Example 182, 4-((S)-4,4-Difluoro-2-methylpyrrolidine-1-carbonyl)-N-(cis-4-hydroxytetrahydrofuran-3-yl)-5-(6-((1-methylcyclobutyl)amino)-4-(trifluoromethyl)pyridine-3-yl)thiazole-2-carboxamide] are 0.12 nM, 99* % and 8.1 nM.
In the case of `C[C@H]1CC(F)(F)CN1C(=O)c1nc(C(=O)N[C@H](C)C(C)(C)O)sc1-c1cnc(NC(C)(C)C)cc1C(F)F` [Example 256, 5-[6-(tert-Butylamino)-4-(difluoromethyl)-3-pyridyl]-4-[(2S)-4,4-difluoro-2-methyl-pyrrolidine-1-carbonyl]-N-[(1R)-2-hydroxy-1,2-dimethyl-propyl]thiazole-2-carboxamide], in experiment [1], the Kd was 1.7 nM. In experiment [2], the inhibition at 3 µM was determined as 123% and the IC50 is 20 nM.

For the origin of these results see patent US10975068B2, “6-aminopyridin-3-yl thiazoles as modulators of RORγT” (Janssen Pharmaceutica NV, priority 2016, dated 2021).
